Laboratory results published in patent US8138169B2, “Combination therapy for bipolar disorder” (ComgenRx, Inc., priority 2008, dated 2012).

Test system: patients with bipolar disorder
Assay: Side effects reported in patient case reports
Assay type: in vivo, human

O=C1Cc2cc(CCN3CCN(c4nsc5ccccc45)CC3)c(Cl)cc2N1 [Geodon, ziprasidone]
tolerability (Example 42: Geodon 80 mg/day, felt like crawling out of their skin): could not tolerate the Geodon

CN(C)CCOC(c1ccccc1)c1ccccc1 [Benadryl]
akisthisia (Example 42: Benadryl 1x/day for akisthisia under Geodon): significant improvement

OCCOCCN1CCN(C2=Nc3ccccc3Sc3ccccc32)CC1 [Seroquel, quetiapine fumurate]
effect on blood sugar (Example 15: Seroquel given by their psychiatrist): elevated their blood sugar
sedation (Example 18: Seroquel 400 mg): excessive sedation in the AM

[Li] [lithium]
side effects (Example 7: lithium 300 mg tid, stopped): intolerable side effects
side effects (Example 21: lithium 600 mg/day, improved at 300 mg): tremulousness and stomach discomfort along with diarrhea
